In PubChem BioAssay (NCI):
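Method: 48-hour compound exposure of cells in 96-well plates, five concentrations, linear interpolation of endpoints. Abbreviation: GI50, concentration required for 50% inhibition of growth. TGI denotes the concentration required for complete inhibition of growth.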

Assays:
Assay in all cases: DTP human tumour cell line panel, 48 h
COLO 205 colon = tested on: COLO 205 colon
IGROV1 ovarian = tested on: IGROV1 ovarian
M14 melanoma = tested on: M14 melanoma
HCC-2998 colon = tested on: HCC-2998 colon
SNB-19 CNS = tested on: SNB-19 CNS
NCI/ADR-RES ovarian = tested on: NCI/ADR-RES ovarian
NCI-H522 lung = tested on: NCI-H522 lung
OVCAR-5 ovarian = tested on: OVCAR-5 ovarian
UO-31 renal = tested on: UO-31 renal
MDA-MB-231 breast = tested on: MDA-MB-231 breast
ACHN renal = tested on: ACHN renal
SR leukemia = tested on: SR leukemia
UACC-62 melanoma = tested on: UACC-62 melanoma
HT29 colon = tested on: HT29 colon
NCI-H23 lung = tested on: NCI-H23 lung
HS 578T breast = tested on: HS 578T breast
TK-10 renal = tested on: TK-10 renal
HCT-15 colon = tested on: HCT-15 colon
A498 renal = tested on: A498 renal
MOLT-4 leukemia = tested on: MOLT-4 leukemia
SK-MEL-2 melanoma = tested on: SK-MEL-2 melanoma
OVCAR-4 ovarian = tested on: OVCAR-4 ovarian
HOP-92 NSCLC = tested on: HOP-92 NSCLC
OVCAR-3 ovarian = tested on: OVCAR-3 ovarian
NCI-H226 lung = tested on: NCI-H226 lung
CCRF-CEM leukemia = tested on: CCRF-CEM leukemia
EKVX NSCLC = tested on: EKVX NSCLC
RPMI-8226 leukemia = tested on: RPMI-8226 leukemia
SN12C renal = tested on: SN12C renal
SNB-75 CNS = tested on: SNB-75 CNS
U251 CNS = tested on: U251 CNS
LOX IMVI melanoma = tested on: LOX IMVI melanoma
HL-60(TB) leukemia = tested on: HL-60(TB) leukemia
MDA-MB-435 = tested on: MDA-MB-435
PC-3 prostate = tested on: PC-3 prostate
SF-295 CNS = tested on: SF-295 CNS
DU-145 prostate = tested on: DU-145 prostate
SF-539 CNS = tested on: SF-539 CNS
MCF7 breast = tested on: MCF7 breast
RXF 393 renal = tested on: RXF 393 renal
SK-OV-3 ovarian = tested on: SK-OV-3 ovarian
HOP-62 NSCLC = tested on: HOP-62 NSCLC
BT-549 breast = tested on: BT-549 breast
SK-MEL-28 melanoma = tested on: SK-MEL-28 melanoma
NCI-H460 lung = tested on: NCI-H460 lung
CAKI-1 renal = tested on: CAKI-1 renal
K-562 leukemia = tested on: K-562 leukemia
SF-268 CNS = tested on: SF-268 CNS
786-0 renal = tested on: 786-0 renal
UACC-257 melanoma = tested on: UACC-257 melanoma
A549 NSCLC = tested on: A549 NSCLC
SW-620 colon = tested on: SW-620 colon
HCT-116 colon = tested on: HCT-116 colon
MALME-3M melanoma = tested on: MALME-3M melanoma
OVCAR-8 ovarian = tested on: OVCAR-8 ovarian
SK-MEL-5 melanoma = tested on: SK-MEL-5 melanoma

C=C1C(=O)O[C@@H]2C[C@@H](C)/C=C\C(=O)[C@](C)(OC(C)=O)C[C@H](OC(=O)/C(C)=C\C)[C@@H]12 gave a GI50 (COLO 205 colon) of 0.75 µM, a TGI (COLO 205 colon) of 2.6 µM and a GI50 (IGROV1 ovarian) of 4.31 µM. It also gave a TGI (IGROV1 ovarian) of 9.91 µM, a GI50 (M14 melanoma) of 3.69 µM and a TGI (M14 melanoma) of 11 µM. It also gave a GI50 (HCC-2998 colon) of 4.14 µM, a TGI (HCC-2998 colon) of 8.31 µM and a GI50 (SNB-19 CNS) of 11.5 µM. It also gave a TGI (SNB-19 CNS) of over 25 µM, a GI50 (NCI/ADR-RES ovarian) of 2.8 µM and a TGI (NCI/ADR-RES ovarian) of over 25 µM. For the same molecule, the GI50 (NCI-H522 lung) was 0.508 µM, the TGI (NCI-H522 lung) was 1.22 µM and the GI50 (OVCAR-5 ovarian) was 2.53 µM. For the same molecule, the TGI (OVCAR-5 ovarian) was 5.97 µM, the GI50 (UO-31 renal) was 2.91 µM and the TGI (UO-31 renal) was 6 µM. The GI50 (MDA-MB-231 breast) was 1.7 µM, the TGI (MDA-MB-231 breast) was 5.89 µM and the GI50 (ACHN renal) was 0.466 µM. It also gave a TGI (ACHN renal) of 0.885 µM, a GI50 (SR leukemia) of 0.845 µM and a TGI (SR leukemia) of 5.2 µM. The GI50 (UACC-62 melanoma) was 1.55 µM, the TGI (UACC-62 melanoma) was 5.93 µM and the GI50 (HT29 colon) was 1.06 µM. The TGI (HT29 colon) was 4 µM, the GI50 (NCI-H23 lung) was 1.21 µM and the TGI (NCI-H23 lung) was 5.95 µM. For the same molecule, the GI50 (HS 578T breast) was 12.3 µM, the TGI (HS 578T breast) was over 25 µM and the GI50 (TK-10 renal) was 0.996 µM. It also gave a TGI (TK-10 renal) of 3.32 µM, a GI50 (HCT-15 colon) of 0.675 µM and a TGI (HCT-15 colon) of 2.13 µM. The GI50 (A498 renal) was 6.15 µM, the TGI (A498 renal) was 13.5 µM and the GI50 (MOLT-4 leukemia) was 0.896 µM. It also gave a TGI (MOLT-4 leukemia) of 4.25 µM, a GI50 (SK-MEL-2 melanoma) of 4.45 µM and a TGI (SK-MEL-2 melanoma) of 12.1 µM. The GI50 (OVCAR-4 ovarian) was 1.58 µM, the TGI (OVCAR-4 ovarian) was 8.48 µM and the GI50 (HOP-92 NSCLC) was 3.74 µM. It also gave a TGI (HOP-92 NSCLC) of 8.05 µM, a GI50 (OVCAR-3 ovarian) of 0.94 µM and a TGI (OVCAR-3 ovarian) of 3.2 µM. It also gave a GI50 (NCI-H226 lung) of 3.48 µM, a TGI (NCI-H226 lung) of 6.83 µM and a GI50 (CCRF-CEM leukemia) of 0.834 µM. For the same molecule, the TGI (CCRF-CEM leukemia) was 4.41 µM, the GI50 (EKVX NSCLC) was 2.63 µM and the TGI (EKVX NSCLC) was 6.27 µM. It also gave a GI50 (RPMI-8226 leukemia) of 0.893 µM, a TGI (RPMI-8226 leukemia) of 2.94 µM and a GI50 (SN12C renal) of 5.73 µM. The TGI (SN12C renal) was over 25 µM, the GI50 (SNB-75 CNS) was 4.07 µM and the TGI (SNB-75 CNS) was 17.6 µM. For the same molecule, the GI50 (U251 CNS) was 3.7 µM, the TGI (U251 CNS) was 8.64 µM and the GI50 (LOX IMVI melanoma) was 2.88 µM. For the same molecule, the TGI (LOX IMVI melanoma) was 6.18 µM, the GI50 (HL-60(TB) leukemia) was 1 µM and the TGI (HL-60(TB) leukemia) was 5.75 µM. It also gave a GI50 (MDA-MB-435) of 3.91 µM, a TGI (MDA-MB-435) of 12.4 µM and a GI50 (PC-3 prostate) of 4.77 µM. It also gave a TGI (PC-3 prostate) of 13.7 µM, a GI50 (SF-295 CNS) of 7.73 µM and a TGI (SF-295 CNS) of 20.2 µM. It also gave a GI50 (DU-145 prostate) of 2.52 µM, a TGI (DU-145 prostate) of 6.12 µM and a GI50 (SF-539 CNS) of 3.19 µM. For the same molecule, the TGI (SF-539 CNS) was 6.52 µM, the GI50 (MCF7 breast) was 0.971 µM and the TGI (MCF7 breast) was 5.6 µM. The GI50 (RXF 393 renal) was 0.683 µM, the TGI (RXF 393 renal) was 1.87 µM and the GI50 (SK-OV-3 ovarian) was 11.1 µM. It also gave a TGI (SK-OV-3 ovarian) of over 25 µM, a GI50 (HOP-62 NSCLC) of 7.2 µM and a TGI (HOP-62 NSCLC) of 20.7 µM. The GI50 (BT-549 breast) was 3.02 µM, the TGI (BT-549 breast) was 6.31 µM and the GI50 (SK-MEL-28 melanoma) was 1.81 µM. The TGI (SK-MEL-28 melanoma) was 5.49 µM, the GI50 (NCI-H460 lung) was 7.02 µM and the TGI (NCI-H460 lung) was 23.6 µM. It also gave a GI50 (CAKI-1 renal) of 1.09 µM, a TGI (CAKI-1 renal) of 3.97 µM and a GI50 (K-562 leukemia) of 0.978 µM. The TGI (K-562 leukemia) was over 25 µM, the GI50 (SF-268 CNS) was 5.38 µM and the TGI (SF-268 CNS) was 20.8 µM. For the same molecule, the GI50 (786-0 renal) was 2.66 µM, the TGI (786-0 renal) was 5.93 µM and the GI50 (UACC-257 melanoma) was 2.66 µM. The TGI (UACC-257 melanoma) was 6.77 µM, the GI50 (A549 NSCLC) was 7.78 µM and the TGI (A549 NSCLC) was 24.2 µM. It also gave a GI50 (SW-620 colon) of 1.01 µM, a TGI (SW-620 colon) of 3.54 µM and a GI50 (HCT-116 colon) of 0.835 µM. For the same molecule, the TGI (HCT-116 colon) was 3.13 µM, the GI50 (MALME-3M melanoma) was 1.1 µM and the TGI (MALME-3M melanoma) was 5.11 µM. It also gave a GI50 (OVCAR-8 ovarian) of 1.11 µM, a TGI (OVCAR-8 ovarian) of 23.9 µM and a GI50 (SK-MEL-5 melanoma) of 3.7 µM. It also gave a TGI (SK-MEL-5 melanoma) of 7.25 µM.
